Square brackets hold non-standard residues; d marks the D form. Peptide text beside a SMILES is read from it. * marks the point of attachment. pY = N[C@@H](Cc1ccc(OP(=O)(O)O)cc1)C(=O)O; NHPhenethyl = c1ccc(CCN*)cc1
The compounds below were run against T1, Src SH2 (Homo sapiens, UniProt P12931) (assay: Inhibition of 125I-phosphopeptide binding to immobilized Src SH2). Conditions: IC50, SRC SH2 Binding, competitive 125I-phosphopeptide displacement, GST-Src SH2 fusion protein, pH 7.5, room temperature, 20 minutes.
T1 construct: glutathione-S-transferase(GST)-Src SH2 fusion protein
Method: The binding affinities of compounds of the present invention to Src SH2 was determined using a competitive radiolabeled phosphopeptide displacement assay.
Binding was performed at room temperature for 20 minutes while continuously inverting the plate. […] Results are expressed as IC50 values in Table 1 below.

T1 sequence (P12931 151-248 limits assumed): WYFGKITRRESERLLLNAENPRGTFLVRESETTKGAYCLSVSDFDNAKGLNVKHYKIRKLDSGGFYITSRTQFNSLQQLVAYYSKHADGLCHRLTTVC

SMILES | IC50 [µM]
CC(=O)N[C@@H](Cc1ccc(OP(=O)(O)O)cc1)C(=O)N[C@@H](CCC(=O)O)C(=O)NCCCCC(C)C (relative stereo) [Example 37, [S -(R*,R*)]-4-[2-Acetylamino-3-(4-phosphonooxy-phenyl)-propionylamino]-4-(5-methyl-hexylcarbamoyl)-butyric acid] | 6.7
CC(=O)N[C@@H](Cc1ccc(OP(=O)(O)O)cc1)C(=O)N[C@@H](CCC(=O)O)C(=O)N[C@@H](C)CC1CCCCC1 [Example 2, 4-[(S)-2-Acetylamino-3-(4-phosphonooxy-phenyl)-(S)-propionylamino]-4-(2-cyclohexyl-(S)-1-methylethylcarbamoyl)-butyric acid] | 2.4
CC(=O)N[C@@H](Cc1ccc(OP(=O)(O)O)cc1)C(=O)N[C@@H](CCC(=O)O)C(=O)N(C)[C@@H](C)CC1CCCCC1 [Example 3] | 2.3
CNC(=O)N[C@@H](Cc1ccc(OP(=O)(O)O)cc1)C(=O)N[C@@H](CCC(=O)O)C(=O)N(C)CCCC1CCCCC1 [Example 7, [S-(R*,R*)]-4-[(3-Cyclohexyl-propyl)-methyl-carbamoyl]-4-[2-(3-methyl-ureido)-3-(4-phosphonooxy-phenyl)-propionylamino]-butyric acid] | 2
CCCC[C@H](NC(=O)[C@H](Cc1ccc(OP(=O)(O)O)cc1)NC(C)=O)C(=O)N(C)CCCC1CCCCC1 [Example 9, [S-(R*,R*)]-Phosphoric acid mono-[4-(2-acetylamino-2-{1-[(3-cyclohexyl-propyl)-methyl-carbamoyl]-pentylcarbamoyl}-ethyl)-phenyl] ester] | 6.2
CC(=O)N[C@@H](Cc1ccc(OP(=O)(O)O)cc1)C(=O)N[C@@H](CCC(=O)O)C(=O)NCCc1cccc2c1CCCC2 [Example 13, [S-(R* ,R*)]-4-[2-Acetylamino-3-(4-phosphonooxy-phenyl)-propionylamino]-4-[2-(5,6,7,8-tetrahydro-naphthalen-1-yl)-ethylcarbamoyl]-butyric acid] | 4.4
CC(=O)N[C@@H](Cc1ccc(OP(=O)(O)O)cc1)C(=O)N[C@@H](CCC(=O)O)C(=O)NCc1cccc2ccccc12 [Example 15, [S-(R*,R*)]-4-[2-Acetylamino-3-(4-phosphonooxy-phenyl)-propionylamino]-4-[(naphthalen-1-ylmethyl)-carbamoyl]-butyric acid] | 7
CC(=O)N[C@@H](Cc1ccc(OP(=O)(O)O)cc1)C(=O)N[C@@H](CCC(=O)O)C(=O)NCCc1ccccc1 [Example 16, [S-(R*,R*)]-4-[2-Acetylamino-3-(4-phosphonooxy-phenyl)-propionylamino]-4-phenethylcarbamoyl-butyric acid] (Ac-[pY]-Glu-NHPhenethyl) | 9.8
CC(=O)N[C@@H](Cc1ccc(OP(=O)(O)O)cc1)C(=O)N[C@@H](CCC(=O)O)C(=O)N(C)[C@@H](C)Cc1ccccc1 [Example 17, 4-[(S)-2-Acetylamino-3-(4-phosphonooxy-phenyl)-(S)-propionylamino]-4-[methyl-((S)-1-methyl-2-phenylethyl)-carbamoyl]-butyric acid] | 3.2
CC(=O)N[C@@H](Cc1ccc(OP(=O)(O)O)cc1)C(=O)N[C@@H](CCC(=O)O)C(=O)N[C@@H](C)Cc1ccccc1 [Example 18, 4-[(S)-2-Acetylamino-3-(4-phosphonooxy-phenyl)-(S)-propionylamino]-4-((S)-1-methyl-2-phenylethylcarbamoyl)-butyric acid] | 3.3
CC(=O)N[C@@H](Cc1ccc(OP(=O)(O)O)cc1)C(=O)N[C@@H](CCC(=O)O)C(=O)N(C)CCCc1ccccc1 [Example 19, [S-(R*,R*)]-4-[2-Acetylamino-3-(4-phosphonooxy-phenyl)-propionylamino]-4-[methyl-(3-phenyl-propyl)-carbamoyl]-butyric acid] | 5.6
CC(=O)N[C@@H](Cc1ccc(OP(=O)(O)O)cc1)C(=O)N[C@@H](CCC(=O)O)C(=O)NCCc1ccc(C)cc1 [Example 22, [S-(R*,R*)]-4-[2-Acetylamino-3-(4-phosphonooxy-phenyl)-propionylamino]-4-(2-p-tolyl-ethylcarbamoyl)-butyric acid] | 8.3
COc1ccccc1CCN(C)C(=O)[C@H](CCC(=O)O)NC(=O)[C@H](Cc1ccc(OP(=O)(O)O)cc1)NC(C)=O [Example 23, [S-(R*,R*)]-4-[2-Acetylamino-3-(4-phosphonooxy-phenyl)-propionylamino]-4-{[2-(2-methoxy-phenyl)-ethyl]-methyl-carbamoyl}-butyric acid] | 6.2
CC(=O)N[C@@H](Cc1ccc(OP(=O)(O)O)cc1)C(=O)N[C@@H](C)C(=O)N(CCCC(=O)O)CCCC1CCCCC1 [Example 25, [S-(R*,R*)]-4-[{2-[2-Acetylamino-3-(4-phosphonooxy-phenyl)-propionylamino}-propionyl]-(3-cyclohexylpropyl)-amino]-butyric acid] | 7.1
CC(=O)N[C@@H](Cc1ccc(OP(=O)(O)O)cc1)C(=O)N[C@@H](C)C(=O)N(CCCC(=O)O)CCCc1ccccc1 [Example 26, [S-(R*,R*)]-4-[{2-[2-Acetylamino-3-(4-phosphonooxy-phenyl)-propionylamino}-propionyl]-(3-phenyl-propyl)-amino]-butyric acid] | 9.8
CC(=O)N[C@@H](Cc1ccc(OP(=O)(O)O)cc1)C(=O)N[C@@H](C)C(=O)N(CCCCC(=O)O)CCCc1ccccc1 [Example 27, [S-(R*,R*)]-5-[{2-[2-Acetylamino-3-(4-phosphonooxy-phenyl)-propionylamino]-propionyl}-(3-phenyl-propyl)-amino]-pentanoic acid] | 8
CCCCN(CCCc1ccccc1)C(=O)[C@H](C)NC(=O)[C@H](Cc1ccc(OP(=O)(O)O)cc1)NC(C)=O [Example 28, [S-(R*,R*)]-Phosphoric acid mono-[4-(2-acetylamino-2-{1-[butyl-(3-phenyl-propyl)-carbamoyl]-ethylcarbamoyl}-ethyl)-phenyl] ester] | 12
CC(=O)N[C@@H](Cc1ccc(OP(=O)(O)O)cc1)C(=O)N[C@@H](CCC(=O)O)C(=O)NCCCc1ccc(OCC(=O)O)cc1 [Example 29, [S-(R*,R*)]-4-[2-Acetylamino-3-(4-phosphonooxy-phenyl)-propionylamino]-4-[3-(4-carboxymethoxy-phenyl)-propylcarbamoyl]-butyric acid] | 8.3
CC(=O)N[C@@H](Cc1ccc(OP(=O)(O)O)cc1)C(=O)N[C@@H](CCC(=O)O)C(=O)N1CCC[C@H]1Cc1ccccc1 [Example 30] | 5.5
CC(=O)N(C)C(Cc1ccc(OP(=O)(O)O)cc1)C(=O)N[C@@H](CCC(=O)O)C(=O)NCCCc1ccccc1 (stereo partly drawn) [Example 32, 4-[(RS)-2-(Acetyl-methyl-amino)-3-(4-phosphonooxy-phenyl)-(S)-propionylamino]-4-(3-phenylpropylcarbamoyl)-butyric acid] | 9.2
CS(=O)(=O)N[C@@H](Cc1ccc(OP(=O)(O)O)cc1)C(=O)N[C@@H](CCC(=O)O)C(=O)NCCCc1ccccc1 [Example 33, [S-(R*,R*)]-4-[2-Methanesulfonylamino-3-(4-phosphonooxy-phenyl)-propionylamino]-4-(3-phenyl-propylcarbamoyl)-butyric acid] | 9.3
CCC(C)CCCNC(=O)[C@H](CCC(=O)O)NC(=O)[C@H](Cc1ccc(OP(=O)(O)O)cc1)NC(C)=O (stereo partly drawn) [Example 38, [S-(R*,R*)]-4-[2-Acetylamino-3-(4-phosphonooxy-phenyl)-propionylamino]-4-(4-methyl-hexylcarbamoyl)-butyric acid] | 4.1
NC(=O)c1cc(CNC(=O)c2ccc(OP(=O)(O)O)cc2)ccc1OCc1ccccc1 [Example 39, Phosphoric acid mono-[4-(4-benzyloxy-3-carbamoyl-benzylcarbamoyl)-phenyl] ester] | 9.7
Cc1cccc(COc2ccc(CNC(=O)c3ccc(OP(=O)(O)O)cc3)cc2C(N)=O)c1 [Example 40, Phosphoric acid mono-{4-[3-carbamoyl-4-(3-methyl-benzyloxy)-benzylcarbamoyl]-phenyl} ester] | 7
Cc1cc(C)cc(COc2ccc(CNC(=O)c3ccc(OP(=O)(O)O)cc3)cc2C(N)=O)c1 [Example 41, Phosphoric acid mono-{4-[3-carbamoyl-4-(3,5-dimethyl-benzyloxy)-benzylcarbamoyl]-phenyl} ester] | 6.6
CC(C)CCCOc1ccc(CNC(=O)c2ccc(OP(=O)(O)O)cc2)cc1C(N)=O [Example 42, Phosphoric acid mono-{4-[3-carbamoyl-4-(4-methyl-pentyloxy)-benzylcarbamoyl]-phenyl} ester] | ~30
CCC(C)CCCOc1ccc(CNC(=O)c2ccc(OP(=O)(O)O)cc2)cc1C(N)=O (stereo not drawn) [Example 43, Phosphoric acid mono-{4-[3-carbamoyl-4-(4-methyl-hexyloxy) -benzylcarbamoyl]-phenyl} ester] | ~20

Same assay, conditions: competitive 125I-phosphopeptide displacement, GST-Src SH2 fusion protein, pH 7.5, room temperature, 20 minutes; read-out: IC50, SRC SH2 Binding

SMILES | IC50 [µM]
CC(=O)N[C@@H](Cc1ccc(OP(=O)(O)O)cc1)C(=O)N[C@@H](CCC(=O)O)C(=O)NCCCc1ccccc1 [Example 14, [S-(R*,R*)]-4-[2-Acetylamino-3-(4-phosphonooxy-phenyl)-propionylamino]-4-(3-phenyl-propylcarbamoyl)-butyric acid] | 10
CC(=O)N[C@@H](Cc1ccc(OP(=O)(O)O)cc1)C(=O)N[C@@H](Cc1ccc(O)cc1)C(=O)NCCCc1ccccc1 [Example 20, [S-(R*,R*)]-Phosphoric acid mono-(4-{2-acetylamino-2-[2-(4-hydroxy-phenyl)-1-(3-phenyl-propylcarbamoyl)-ethyl-carbamoyl]-ethyl}-phenyl) ester] | 20

Same assay, conditions: read-out: IC50, SRC SH2 Binding; competitive 125I-phosphopeptide displacement, GST-Src SH2 fusion protein, pH 7.5, room temperature, 20 minutes

SMILES | IC50 [µM]
COc1ccccc1CCNC(=O)[C@H](CCC(=O)O)NC(=O)[C@H](Cc1ccc(OP(=O)(O)O)cc1)NC(C)=O [Example 21, [S-(R*,R*)]4-[2-Acetylamino-3-(4-phosphonooxy-phenyl)-propionylamino]-4-[2-(2-methoxy-phenyl)-ethylcarbamoyl]-butyric acid] | 5.5

— US5922697A, “Compounds, compositions and methods for inhibiting the binding of proteins containing an SH2 domain to cognate phosphorylated proteins” (Warner-Lambert Company, priority 1998, dated 1999)
